Activity calls are given as the source filed them. No rule for the calls is given here.
Assay: LAP4-GFP modulation potency in yeast, dose response, cell-based, MLPCN hits, flow cytometry (AID 2745);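 also: yeast exposed to compound for three hours at 30 degrees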
Details: S. cerevisiae LAP4-GFP reporter, flow cytometry fluorescence; at 33 µM (top of the series)

| SMILES | LAP4-GFP fluorescence (kMESF) |
| --- | --- |
| COc1ccc(N2CCN(C(=O)c3ccccc3)CC2)c([N+](=O)[O-])c1 | 6.87 kMESF (inactive) |
| O=C(OCC(=O)N1CCN(C(=O)c2ccco2)CC1)c1cc(-c2ccc(Cl)c(Cl)c2Cl)nc2ccccc12 | 4.61 kMESF (inactive) |
| Oc1c(C(Nc2nc3ccccc3s2)c2ccco2)ccc2cccnc12 (centres undefined) | 24.1 kMESF (inactive) |
| CCCCCn1c(=O)c(C(=O)Nc2nc3ccccc3[nH]2)c(O)c2ccccc21 | 2.43 kMESF (inactive) |
| COc1ccc(NC2=C(Cl)C(=O)N(CCc3ccccc3)C2=O)c(OC)c1 | 3.18 kMESF (inactive) |
| Cc1ccc2c(nc3s/c(=C\c4ccc(-c5ccccc5C(=O)O)o4)c(=O)n32)c1C | 15.5 kMESF (inactive) |
| O=C(Nc1nnc(-c2ccc(F)cc2)o1)c1cccc([N+](=O)[O-])c1 | 6.91 kMESF (inactive) |
| COC(=O)CCCC1=CC2=CC(=O)C(C)(OC(=O)CCc3ccccc3)C(=O)C2=CO1 (centres undefined) | 3.13 kMESF (inactive) |
| Cc1ccc(N=c2ssnc2Cl)cc1 | 10.6 kMESF (inactive) |
| CC(C)(C)C(=O)NC(=S)NNC(=O)c1sc2ccccc2c1Cl | 8.89 kMESF (inactive) |
| C[C@@H]1C[C@@H]([C@H](O)CC2CC(=O)NC(=O)C2)C(=O)[C@@H](C)C1 | 6.31 kMESF (inactive) |
| CCn1c(=O)c(C(C)=O)c(O)c2ccccc21 | 6.66 kMESF (inactive) |
| O=C1N(c2ccccc2C(F)(F)F)O[C@]1(c1ccccc1)C1CCCC1 | 3.98 kMESF (inactive) |
| Cc1ccc(C2=NN(S(C)(=O)=O)C(c3ccc4c(c3)OCO4)C2)cc1 (centres undefined) | 4.78 kMESF (inactive) |
| O=C(Nc1cccc(-c2csc(Nc3ccccc3)n2)c1)c1ccccc1 | 4.18 kMESF (inactive) |
| CCCCOc1ccc(C(=O)NNC(=S)NC(=O)CC)cc1 | 9.81 kMESF (inactive) |
| CC(=O)[C@]1(O)Cc2c(O)c3c(c(O)c2[C@@H](O[C@H]2C[C@H](N)[C@H](O)[C@H](C)O2)C1)C(=O)c1ccccc1C3=O | 9.67 kMESF (inactive) |
| O=C(NC(=S)NNC(=O)[C@H]1C[C@@H]1c1ccccc1)c1cccc(F)c1 | 17.8 kMESF (inactive) |
| COc1ccc(N2C(=O)C(Cl)=C(NCc3ccccc3)C2=O)cc1 | 6.61 kMESF (inactive) |
| O=C1c2ccccc2C(=O)N1OS(=O)(=O)c1ccccc1 | 8.7 kMESF (inactive) |

| SMILES | LAP4-GFP fluorescence (kMESF) |
| --- | --- |
| CCCCC1OC23CCCCC2C(C#N)(C(=N)O3)C1(C#N)C#N (centres undefined) | 3.98 kMESF (inactive) |
| COc1ccc(/C=C/C(=O)c2cc(Br)ccc(=O)c2O)cc1 | -33.8 kMESF (inactive) |
| CCOC(=O)CS(=O)(=O)c1nc(-c2ccc(F)cc2)cc(C(F)(F)F)n1 | 11.2 kMESF (inactive) |
| C#CCOCCOCCOCCNc1nc(N2CCN(C(=O)CCCCCCCCCCNC(=O)[C@@H](CCC(=O)O)n3cc(CCCCCN)nn3)CC2)nc(N2CCN(C(=O)CCCCCCCCCCNC(=O)[C@H](CCCCN)n3cc(C[C@@H](C)CC)nn3)CC2)n1 | 6.47 kMESF (inactive) |
| C#CCOCCOCCOCCNc1nc(N2CCN(C(=O)CCCCCCCCCCNC(=O)[C@H](CCCCN)n3cc(CCCC(=O)O)nn3)CC2)nc(N2CCN(C(=O)CCCCCCCCCCNC(=O)[C@H](CCCN=C(N)N)n3cc(C[C@@H](C)CC)nn3)CC2)n1 | 5.16 kMESF (inactive) |
| Cc1ccc(-c2nc(N)c3c(-c4ccc(C)cc4)nn(C(C)(C)C)c3n2)cc1 | 3.37 kMESF (inactive) |
| O=C(/C=C/c1ccccc1)c1cc(Br)ccc(=O)c1O | -10.1 kMESF (inactive) |
| O=c1oc(/C=C/c2ccc([N+](=O)[O-])s2)nc2ccccc12 | 12.6 kMESF (inactive) |
| CS(=O)(=O)c1sc(C#N)c2c1C(=O)CC(c1ccccc1)C2 (centres undefined) | 14.6 kMESF (inactive) |
| Cc1ccc2[nH]c(C)c(/C=C/c3cc[n+](C)cc3)c2c1 | 8.71 kMESF (inactive) |
| COc1ccc(C(=O)/C=C2/C(=O)Nc3ccccc32)cc1OC | 4.19 kMESF (inactive) |
| O=C(NC(=S)NNC(=O)c1ccc(Cl)cc1Cl)c1cccnc1 | 4.37 kMESF (inactive) |
| O=C(CCS(=O)(=O)c1ccccc1)Nc1nc(-c2ccccn2)cs1 | 3.91 kMESF (inactive) |
| O=C1N(c2ccccc2C(F)(F)F)O[C@]1(c1ccccc1)C1CCCCC1 | 2.33 kMESF (inactive) |
| CC[C@]1(c2ccccc2OC)ON(c2ccccc2C(F)(F)F)C1=O | 7.52 kMESF (inactive) |
| Cc1nn(C)c(C)c1N1C(=O)c2cccc3c(Br)ccc(c23)C1=O | 5.85 kMESF (inactive) |
| CCCCc1ccc(/C=C2/C(=O)ON=C2c2ccccc2)s1 | 3.67 kMESF (inactive) |
| Cc1ccc(N=Nc2ccc(O)c3ncccc23)cc1 | 4.95 kMESF (inactive) |
| N/C(=N\OC(=O)c1ccccc1Cl)c1ccc(Cl)cc1 | 11.3 kMESF (inactive) |
| COc1ccccc1N1C(=O)c2cccc3c(C(=O)O)ccc(c23)C1=O | 6.85 kMESF (inactive) |

| SMILES | LAP4-GFP fluorescence (kMESF) |
| --- | --- |
| Cc1cccc(/C=C/C(=O)c2ccc([N+](=O)[O-])o2)c1 | 9.32 kMESF (inactive) |
| Cc1ccc(N2C(=O)C(Cl)=C(Nc3c(C)n(C)n(-c4ccccc4)c3=O)C2=O)cc1 | 2.87 kMESF (inactive) |
| O=C(Oc1ccnc2cc(Cl)ccc12)N1CCOCC1 | 2.63 kMESF (inactive) |
| Cc1ccc(/C=C2\C(=O)NC(=S)N(c3ccccc3F)C2=O)s1 | 5.57 kMESF (inactive) |
| N#C/C(=C\c1cc(Br)ccc1F)C(=O)NC1CC1 | 18.3 kMESF (inactive) |
| CN(C)c1ccc(N=Cc2nc(-c3ccccc3)oc2OC(=O)c2ccccc2)cc1 | 4.09 kMESF (inactive) |
| CC(=O)N(C1=C(Cl)C(=O)c2ccccc2C1=O)C1CCCCC1 | -2.43 kMESF (inactive) |
| O=C1C(Cl)=C(Nc2ccccc2O)C(=O)N1c1ccccc1 | 4.81 kMESF (inactive) |
| O=C(/C=C/c1ccnc2ccccc12)c1cccs1 | 11.4 kMESF (inactive) |
| N#Cc1cc([N+](=O)[O-])c(-n2nnc3ccccc32)c([N+](=O)[O-])c1 | 14.5 kMESF (inactive) |
| O=C1CC(c2ccccc2)=NN1c1nc(-c2ccccc2)cs1 | 3.94 kMESF (inactive) |
| Oc1ccc2ccccc2c1/C=N/Nc1nnc(-c2ncc[nH]2)c2ccccc12 | -7.45 kMESF (inactive) |
| COc1ccc(N=Cc2nc(-c3ccccc3)oc2OC(C)=O)cc1 | 4.93 kMESF (inactive) |
| CCOC(=O)c1c(C)oc2c1c(C(c1cccnc1)N1CCOCC1)c(O)c1ccccc12 (centres undefined) | 4.07 kMESF (inactive) |
| Cc1ccc(NC(=O)c2cc(N3C(=O)C=CC3=O)ccc2Cl)cc1C | 4.75 kMESF (inactive) |
| O=[N+]([O-])c1cc(CN2CCN(c3cccc(C(F)(F)F)c3)CC2)c2cccnc2c1O | 7.46 kMESF (inactive) |
| COc1ccccc1N=Cc1nc(-c2ccccc2)oc1OC(C)=O | 8.6 kMESF (inactive) |
| O=[N+]([O-])c1ccc(Sc2nc3ccccc3o2)c([N+](=O)[O-])c1 | 4.88 kMESF (inactive) |
| COC(=O)CCC(=O)OC1(C)C(=O)C2=COC(c3ccc(OC)cc3)=CC2=C(Br)C1=O (centres undefined) | 6.01 kMESF (inactive) |
